Each block holds one compound with its values, some of them ahead of it.
Experiments:
[1] = biological target: Tyrosine-protein kinase FRK (Homo sapiens) (UniProt P42685); assay: Selectivity interaction (Kinase panel (Z-LYTE Assay)) EUB0001632a FRK; conditions: at 10 µM
[2] = biological target: T1, Myosin-IIIb (Homo sapiens) (UniProt Q8WXR4); conditions: at 10 µM
T1 sequence (whole entry): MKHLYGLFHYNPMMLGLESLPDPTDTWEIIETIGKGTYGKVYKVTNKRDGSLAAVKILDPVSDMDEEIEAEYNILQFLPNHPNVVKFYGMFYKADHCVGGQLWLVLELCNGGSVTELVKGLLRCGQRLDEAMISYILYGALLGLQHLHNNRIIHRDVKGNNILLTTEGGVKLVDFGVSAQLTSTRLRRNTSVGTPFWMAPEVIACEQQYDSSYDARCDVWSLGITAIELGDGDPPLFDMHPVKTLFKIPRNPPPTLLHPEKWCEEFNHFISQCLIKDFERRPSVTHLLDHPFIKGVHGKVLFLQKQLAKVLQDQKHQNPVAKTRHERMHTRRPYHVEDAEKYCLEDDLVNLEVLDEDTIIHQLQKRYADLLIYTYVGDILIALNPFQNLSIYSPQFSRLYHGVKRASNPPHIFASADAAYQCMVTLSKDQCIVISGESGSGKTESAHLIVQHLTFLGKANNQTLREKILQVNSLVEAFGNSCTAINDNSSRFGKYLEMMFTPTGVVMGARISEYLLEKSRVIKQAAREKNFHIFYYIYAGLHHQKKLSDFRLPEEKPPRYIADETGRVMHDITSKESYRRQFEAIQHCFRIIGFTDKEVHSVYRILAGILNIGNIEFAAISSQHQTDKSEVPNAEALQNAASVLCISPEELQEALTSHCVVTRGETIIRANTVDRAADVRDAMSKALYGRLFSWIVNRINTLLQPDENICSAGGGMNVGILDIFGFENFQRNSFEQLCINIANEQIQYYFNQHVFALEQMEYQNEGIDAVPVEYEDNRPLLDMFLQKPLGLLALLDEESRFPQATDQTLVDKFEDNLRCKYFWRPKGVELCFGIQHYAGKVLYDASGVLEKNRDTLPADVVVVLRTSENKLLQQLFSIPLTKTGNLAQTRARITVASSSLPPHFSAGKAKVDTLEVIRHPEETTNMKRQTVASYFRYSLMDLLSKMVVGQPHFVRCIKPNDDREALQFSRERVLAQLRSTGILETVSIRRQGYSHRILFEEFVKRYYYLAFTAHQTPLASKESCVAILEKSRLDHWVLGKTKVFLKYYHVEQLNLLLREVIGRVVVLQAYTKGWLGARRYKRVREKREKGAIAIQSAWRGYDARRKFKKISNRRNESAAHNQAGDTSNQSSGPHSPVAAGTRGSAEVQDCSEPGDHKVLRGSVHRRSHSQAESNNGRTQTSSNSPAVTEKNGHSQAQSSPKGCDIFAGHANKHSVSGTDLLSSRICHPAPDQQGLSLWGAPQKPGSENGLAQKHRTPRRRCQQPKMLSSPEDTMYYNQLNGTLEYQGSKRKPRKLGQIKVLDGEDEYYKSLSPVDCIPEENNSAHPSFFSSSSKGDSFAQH

[3] = biological target: Serine/threonine-protein kinase 16 (Homo sapiens, UniProt O75716); conditions: at 10 µM
Serine/threonine-protein kinase 16, sequence (O75716 whole entry): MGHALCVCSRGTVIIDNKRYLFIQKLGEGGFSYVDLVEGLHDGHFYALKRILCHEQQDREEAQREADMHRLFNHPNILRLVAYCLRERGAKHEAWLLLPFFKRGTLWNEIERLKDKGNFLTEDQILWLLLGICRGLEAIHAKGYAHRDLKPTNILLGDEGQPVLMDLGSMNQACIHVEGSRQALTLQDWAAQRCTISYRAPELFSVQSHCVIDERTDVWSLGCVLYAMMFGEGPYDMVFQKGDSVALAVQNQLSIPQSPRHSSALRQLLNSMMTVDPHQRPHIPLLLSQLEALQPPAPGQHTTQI

[4] = biological target: Serine/threonine-protein kinase PLK1 (Homo sapiens, UniProt P53350); assay: Selectivity interaction (ActivX KiNativ screen (kinase selectivity in THP-1 cell lysates)) EUB0000639a PLK1; assay type: subcellular; conditions: lysate, at 1 µM
[5] = biological target: Serine/threonine-protein kinase SIK3 (Homo sapiens) (UniProt Q9Y2K2); assay: Selectivity interaction (ActivX KiNativ screen (kinase selectivity in THP-1 cell lysates)) EUB0000639a SIK3; assay type: subcellular; conditions: lysate
Serine/threonine-protein kinase SIK3 (Homo sapiens), sequence (Q9Y2K2 whole entry, looked up): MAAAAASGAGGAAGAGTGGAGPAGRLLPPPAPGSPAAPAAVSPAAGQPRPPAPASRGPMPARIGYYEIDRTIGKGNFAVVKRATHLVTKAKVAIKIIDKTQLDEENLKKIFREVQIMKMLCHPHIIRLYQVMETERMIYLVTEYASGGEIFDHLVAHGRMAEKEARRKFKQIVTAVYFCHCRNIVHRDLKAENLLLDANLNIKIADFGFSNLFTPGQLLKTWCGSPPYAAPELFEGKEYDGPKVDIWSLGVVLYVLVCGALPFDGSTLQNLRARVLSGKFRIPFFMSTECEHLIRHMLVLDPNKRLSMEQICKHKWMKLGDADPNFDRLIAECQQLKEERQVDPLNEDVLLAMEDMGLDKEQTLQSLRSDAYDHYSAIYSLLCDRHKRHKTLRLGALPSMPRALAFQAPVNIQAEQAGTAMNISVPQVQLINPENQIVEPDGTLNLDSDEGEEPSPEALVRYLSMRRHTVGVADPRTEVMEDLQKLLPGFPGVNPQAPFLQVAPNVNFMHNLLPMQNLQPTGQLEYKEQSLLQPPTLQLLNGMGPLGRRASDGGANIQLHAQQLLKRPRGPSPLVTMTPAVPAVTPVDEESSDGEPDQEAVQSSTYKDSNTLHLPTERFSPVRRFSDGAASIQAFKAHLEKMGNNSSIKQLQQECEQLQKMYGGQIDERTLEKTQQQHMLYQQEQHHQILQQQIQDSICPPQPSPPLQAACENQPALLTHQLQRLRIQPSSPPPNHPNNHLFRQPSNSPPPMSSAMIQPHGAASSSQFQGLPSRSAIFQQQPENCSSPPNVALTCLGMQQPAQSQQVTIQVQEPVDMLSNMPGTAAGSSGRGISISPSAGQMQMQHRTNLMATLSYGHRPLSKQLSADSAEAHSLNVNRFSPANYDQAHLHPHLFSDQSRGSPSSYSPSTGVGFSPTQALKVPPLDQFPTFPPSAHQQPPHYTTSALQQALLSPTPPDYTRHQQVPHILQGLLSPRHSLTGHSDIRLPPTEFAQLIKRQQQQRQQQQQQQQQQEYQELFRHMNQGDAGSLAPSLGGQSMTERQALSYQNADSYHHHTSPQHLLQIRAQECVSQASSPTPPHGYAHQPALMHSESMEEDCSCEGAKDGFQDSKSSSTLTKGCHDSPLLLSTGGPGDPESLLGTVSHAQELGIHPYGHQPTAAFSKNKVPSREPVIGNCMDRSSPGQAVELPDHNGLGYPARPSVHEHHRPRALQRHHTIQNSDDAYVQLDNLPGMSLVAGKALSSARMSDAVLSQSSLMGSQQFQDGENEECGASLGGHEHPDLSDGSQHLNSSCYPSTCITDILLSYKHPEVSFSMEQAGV

[6] = biological target: T2, Serine/threonine-protein kinase Sgk1 (Homo sapiens) (UniProt O00141); assay: Selectivity interaction (ActivX KiNativ screen (kinase selectivity in THP-1 cell lysates)) EUB0000639a SGK1; assay type: subcellular; conditions: lysate
T2 sequence (whole entry): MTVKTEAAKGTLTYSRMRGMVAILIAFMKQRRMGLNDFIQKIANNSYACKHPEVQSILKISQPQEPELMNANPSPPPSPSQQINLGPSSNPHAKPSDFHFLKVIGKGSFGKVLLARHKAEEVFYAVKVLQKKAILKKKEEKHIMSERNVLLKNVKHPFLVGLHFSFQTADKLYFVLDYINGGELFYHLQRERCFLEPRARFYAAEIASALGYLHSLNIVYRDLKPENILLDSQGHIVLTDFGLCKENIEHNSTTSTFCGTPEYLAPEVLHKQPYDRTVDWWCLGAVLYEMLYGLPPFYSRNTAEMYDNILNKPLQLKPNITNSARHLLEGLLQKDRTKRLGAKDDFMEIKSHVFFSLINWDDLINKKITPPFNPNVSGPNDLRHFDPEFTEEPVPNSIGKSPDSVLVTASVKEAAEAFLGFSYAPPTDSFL

[7] = biological target: Serine/threonine-protein kinase MRCK alpha (Homo sapiens) (UniProt Q5VT25); assay: Selectivity interaction (Ambit KINOMEscan and KiNATiv profiling in Jurkat cells) EUB0000090b CDC42BPA; assay type: cell-based; conditions: at 1 µM
Serine/threonine-protein kinase MRCK alpha (Homo sapiens), sequence (Q5VT25 whole entry): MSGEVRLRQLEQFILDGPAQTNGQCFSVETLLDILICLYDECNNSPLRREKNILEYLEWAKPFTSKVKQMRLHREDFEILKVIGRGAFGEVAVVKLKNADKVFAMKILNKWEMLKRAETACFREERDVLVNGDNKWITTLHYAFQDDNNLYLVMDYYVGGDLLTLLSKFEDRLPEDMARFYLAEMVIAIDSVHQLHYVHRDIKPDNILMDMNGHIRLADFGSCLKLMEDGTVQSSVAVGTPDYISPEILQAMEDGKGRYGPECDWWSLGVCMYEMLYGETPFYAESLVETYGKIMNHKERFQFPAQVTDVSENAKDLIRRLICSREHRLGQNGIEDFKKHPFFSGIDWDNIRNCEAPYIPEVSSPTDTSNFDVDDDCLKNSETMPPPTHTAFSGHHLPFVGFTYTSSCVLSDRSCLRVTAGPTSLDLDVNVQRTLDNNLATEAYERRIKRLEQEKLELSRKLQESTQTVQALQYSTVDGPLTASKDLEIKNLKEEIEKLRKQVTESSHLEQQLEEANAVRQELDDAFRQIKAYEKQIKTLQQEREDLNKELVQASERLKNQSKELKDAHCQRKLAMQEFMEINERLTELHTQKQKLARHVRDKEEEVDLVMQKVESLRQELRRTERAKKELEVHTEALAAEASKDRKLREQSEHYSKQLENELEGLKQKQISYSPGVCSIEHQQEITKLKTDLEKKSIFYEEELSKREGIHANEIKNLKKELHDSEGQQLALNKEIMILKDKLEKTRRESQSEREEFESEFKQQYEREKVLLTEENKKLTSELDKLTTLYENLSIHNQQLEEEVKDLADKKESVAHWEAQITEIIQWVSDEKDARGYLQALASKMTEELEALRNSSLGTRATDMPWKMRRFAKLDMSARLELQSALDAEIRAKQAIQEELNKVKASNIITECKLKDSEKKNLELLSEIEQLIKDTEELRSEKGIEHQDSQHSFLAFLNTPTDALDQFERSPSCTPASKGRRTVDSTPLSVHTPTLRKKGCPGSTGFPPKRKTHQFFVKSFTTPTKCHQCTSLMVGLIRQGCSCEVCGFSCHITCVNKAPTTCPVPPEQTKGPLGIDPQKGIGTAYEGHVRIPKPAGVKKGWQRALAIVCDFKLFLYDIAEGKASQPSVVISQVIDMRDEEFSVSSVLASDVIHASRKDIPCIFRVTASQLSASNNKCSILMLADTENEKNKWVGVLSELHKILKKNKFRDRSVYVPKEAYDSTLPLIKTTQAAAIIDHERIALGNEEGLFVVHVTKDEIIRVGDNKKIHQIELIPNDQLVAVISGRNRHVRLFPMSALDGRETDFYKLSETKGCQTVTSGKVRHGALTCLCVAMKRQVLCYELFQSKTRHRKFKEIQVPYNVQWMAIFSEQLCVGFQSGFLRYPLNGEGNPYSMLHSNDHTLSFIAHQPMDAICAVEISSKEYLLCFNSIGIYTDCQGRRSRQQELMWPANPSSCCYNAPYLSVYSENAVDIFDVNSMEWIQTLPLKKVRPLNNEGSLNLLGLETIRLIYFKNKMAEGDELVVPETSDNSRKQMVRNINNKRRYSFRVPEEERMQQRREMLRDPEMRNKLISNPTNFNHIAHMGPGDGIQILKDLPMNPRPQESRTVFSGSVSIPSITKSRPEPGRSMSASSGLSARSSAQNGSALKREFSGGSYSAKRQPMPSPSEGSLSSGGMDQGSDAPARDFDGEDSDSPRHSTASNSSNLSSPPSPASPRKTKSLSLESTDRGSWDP

[8] = biological target: Cyclin-dependent kinase 11B (Homo sapiens) (UniProt P21127); conditions: at 10 µM
Cyclin-dependent kinase 11B (Homo sapiens), sequence (P21127 whole entry): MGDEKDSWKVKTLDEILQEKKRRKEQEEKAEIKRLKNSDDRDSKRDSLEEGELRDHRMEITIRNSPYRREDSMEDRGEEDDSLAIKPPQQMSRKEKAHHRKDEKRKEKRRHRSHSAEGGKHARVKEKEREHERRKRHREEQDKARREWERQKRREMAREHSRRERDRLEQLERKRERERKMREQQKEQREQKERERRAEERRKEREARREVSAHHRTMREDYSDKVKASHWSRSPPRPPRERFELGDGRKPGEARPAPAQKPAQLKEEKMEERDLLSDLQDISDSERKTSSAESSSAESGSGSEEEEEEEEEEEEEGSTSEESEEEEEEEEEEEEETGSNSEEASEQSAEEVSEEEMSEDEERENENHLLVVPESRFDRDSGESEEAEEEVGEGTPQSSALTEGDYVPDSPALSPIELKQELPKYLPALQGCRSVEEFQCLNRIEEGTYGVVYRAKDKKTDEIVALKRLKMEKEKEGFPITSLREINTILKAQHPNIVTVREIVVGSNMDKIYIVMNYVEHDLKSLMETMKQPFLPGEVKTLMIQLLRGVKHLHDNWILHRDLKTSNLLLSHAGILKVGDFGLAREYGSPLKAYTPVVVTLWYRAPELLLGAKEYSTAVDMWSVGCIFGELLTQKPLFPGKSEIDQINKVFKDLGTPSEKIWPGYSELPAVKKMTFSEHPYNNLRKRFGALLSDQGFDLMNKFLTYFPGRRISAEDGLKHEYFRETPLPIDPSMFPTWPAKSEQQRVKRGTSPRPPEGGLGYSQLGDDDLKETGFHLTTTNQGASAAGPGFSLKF

[9] = biological target: Mitogen-activated protein kinase kinase kinase 1 (Homo sapiens, UniProt Q13233); assay: Selectivity interaction (KinomeScan (DiscoverX)) EUB0001619a MAP3K1; conditions: at 1 µM

Tyrosine-protein kinase FRK (Homo sapiens), sequence (P42685 whole entry): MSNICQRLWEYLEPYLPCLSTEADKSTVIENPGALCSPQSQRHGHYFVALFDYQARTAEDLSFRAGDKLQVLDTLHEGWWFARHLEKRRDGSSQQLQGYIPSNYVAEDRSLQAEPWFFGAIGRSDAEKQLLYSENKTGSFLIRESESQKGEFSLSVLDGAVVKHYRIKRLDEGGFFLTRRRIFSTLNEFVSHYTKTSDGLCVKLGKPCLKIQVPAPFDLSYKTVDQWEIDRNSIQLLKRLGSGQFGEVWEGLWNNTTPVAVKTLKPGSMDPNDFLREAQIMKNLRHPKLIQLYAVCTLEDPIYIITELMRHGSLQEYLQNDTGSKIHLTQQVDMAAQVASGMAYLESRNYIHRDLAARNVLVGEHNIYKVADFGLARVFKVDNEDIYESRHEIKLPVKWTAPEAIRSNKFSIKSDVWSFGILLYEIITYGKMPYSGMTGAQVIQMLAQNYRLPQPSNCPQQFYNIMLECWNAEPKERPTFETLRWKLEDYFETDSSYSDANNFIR

SMILES: CN(C)C/C=C/C(=O)Nc1ccc(C(=O)N2CCCC(Nc3ncc(Cl)c(-c4c[nH]c5ccccc45)n3)C2)cc1 (configuration not stated)
% of control [7]: 86%

SMILES: Cc1cc([C@@H](C)Nc2ccccc2C(=O)O)c2nc(N3CCOCC3)cc(=O)n2c1 [AZD-6482]
% of control [8]: 100%

SMILES: N#Cc1cccc(-c2c[nH]c3ncnc(N4CCOCC4)c23)c1
% of control [9]: 82%

Next, values leading:

% of control [1]: 5.87%
SMILES: Cn1cc(-n2cnc3c(NCc4nc5cc(Cl)c(Cl)cc5[nH]4)nc(N4CCOCC4)nc32)cn1

% of control [2]: 100% | % of control [3]: 100%
SMILES: CCN(CC)CCCCNc1ncc2cc(-c3cc(OC)cc(OC)c3)c(NC(=O)NC(C)(C)C)nc2n1

% of inhibition [4]: -2.8% | % of inhibition ([5]; at 0.01 µM): 5.4% | % of inhibition ([5]; at 0.04 µM): 3.4% | % of inhibition ([5]; at 0.2 µM): 15.7% | % of inhibition ([5]; at 1 µM): -1.4% | % of inhibition ([5]; at 5 µM): -7.8% | % of inhibition ([6]; at 0.01 µM): -1% | % of inhibition ([6]; at 0.04 µM): 3.1% | % of inhibition ([6]; at 0.2 µM): -5.7% | % of inhibition ([6]; at 1 µM): -1% | % of inhibition ([6]; at 5 µM): -1.4%
SMILES: CC[C@@H]1[C@H](F)C(=O)N[C@@H]1COc1nccc2cc(C(N)=O)c(OC)cc12 [ZIMLOVISERTIB]

— ChEMBL document CHEMBL5465560, “Selectivity Literature for EUbOPEN Chemogenomic Library” (2024)
